This passage reports chromatographic logP, efficiency and logP results from US20070275985A1, “Triazolopyrimidines” (Bayer Cropscience Aktiengesellschaft, priority 2003, published 2007).

Read-outs that look alike come from different tables or passages of the source.

Data set [1] is described as follows: logP determination by HPLC (EEC-Directive 79/831 Annex V. A8, gradient method). Format: physicochemical. As to conditions: for chromatographic logP: value printed in preparation example text, read-out: HPLC: log P; for logP: gradient method, acetonitrile/0.1% aqueous phosphoric acid.
For data set [2], the system named is Erysiphe graminis f sp. tritici. Kind of data set: Erysiphe test (wheat)/protective. The conditions noted are these: protective, 500 g/ha, assessment 7 days after inoculation. The class given is in vivo. An excerpt: [table] One part by weight of active substance is mixed with the specified quantities of solvent and emulsifier and the concentrate diluted with water to the desired concentration to prepare a suitable active substance preparation. To test the protective efficiency, young plants are sprayed with the active substance preparation in the specified amount. After drying the spray coating, the plants are dusted with spores of Erysiphe graminis f sp. tritici. The plants are then placed in a glasshouse at a temperature of about 20° C. and a relative humidity of about 80% to promote the development of mildew pustules. The assessment is made 7 days after the inoculation. In this situation 0% means an efficiency corresponding to that of the control whereas an efficiency of 100% means that no attack is observed.

For `C[C@H](Nc1c(-c2ncccc2C(F)(F)F)c(Cl)nc2ncnn12)C(F)(F)F` [Example 1, N-{5-chloro-6-[3-(trifluoromethyl)-2-pyridinyl][1,2,4]triazolo[1,5-a]pyrimidin-7-yl}-N-[(1 S)-2,2,2-trifluor-1-methylethyl]amine], the chromatographic logP in data set [1] amounted to 2.22.

In the case of `C[C@H](Nc1c(-c2ncncc2Cl)c(Cl)nc2ncnn12)C(F)(F)F` [Example 2, N-[5-chloro-6-(5-chloro-4-pyrimidinyl)[1,2,4]triazolo[1,5-a]pyrimidin-7-yl]-N-[(1S)-2,2,2-trifluoro-1-methylethyl]amine], the chromatographic logP in data set [1] (HPLC (gradient method, EEC-Directive 79/831 Annex V. A8)) worked out at 1.98. Moreover, the efficiency result in data set [2] is given as “higher than 90%”.

Consider `CC(C)CNc1c(-c2ncc(C(F)(F)F)cc2F)c(Cl)nc2ncnn12` [Example 3], for which the logP (commonly the decadic logarithm of the partition coefficient of the neutral form, usually between octanol and water) in data set [1] amounted to 2.85.

In turn, `C=C(C)CN(CC)c1c(-c2ncc(C(F)(F)F)cc2F)c(Cl)nc2ncnn12` [Example 4] had a log partition coefficient (logP) in data set [1] of 3.51.

As for `CC(Nc1c(-c2ncc(C(F)(F)F)cc2F)c(Cl)nc2ncnn12)C(F)(F)F` (stereo not shown) [Example 6], in data set [1], the logP was found to be 2.91.

`CC(C)C(C)Nc1c(-c2ncc(C(F)(F)F)cc2F)c(Cl)nc2ncnn12` (stereo not shown) [Example 7] returned a logP in data set [1] of 3.13.

In data set [1], `C[C@@H](Nc1c(-c2ncncc2Cl)c(Cl)nc2ncnn12)C(F)(F)F` [Example 8] gave a logP of 1.98.

Take `CC(C)C(C)Nc1c(-c2ncccc2C(F)(F)F)c(Cl)nc2ncnn12` (stereo not shown) [Example 11]: the logP in data set [1] was 2.53.

Take `CC(C)C(C)Nc1c(-c2ncncc2Cl)c(Cl)nc2ncnn12` (stereo not shown) [Example 13]: in data set [1], the logP is recorded as 2.16.
